“And” between values parts separate entries of the source, which are not always exact repeats. Equal entries are not always repeated. Inconclusive results and toxic doses are left out.
Tested on: L1210 leukemia ip in BDF1 mice, survival T/C
Assay: NCI In Vivo Anticancer Drug Screen. Data for tumor model L1210 Leukemia (intraperitoneal) in B6D2F1 (BDF1) mice
Details: endpoint: mean survival time, higher = longer survival
In short: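 Value reflects the ratio of survival in compound-treated mice to survival in vehicle-treated controls, with both groups carrying the same transplanted tumor.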

[1] = dose: 100.0 mg/kg/injection, schedule: Q01DX001 (ip), vehicle: saline
[2] = dose: 100.0 mg/kg/injection, schedule: Q01DX009 (ip), vehicle: saline with Tween-80
[3] = dose: 200.0 mg/kg/injection, schedule: Q01DX009 (ip), vehicle: saline with Tween-80
[4] = dose: 50.0 mg/kg/injection, schedule: Q01DX009 (ip), vehicle: Klucel (hydroxypropylcellulose) (HPC)
[5] = dose: 100.0 mg/kg/injection, schedule: Q01DX009 (ip), vehicle: Klucel (hydroxypropylcellulose) (HPC)
[6] = dose: 100.0 mg/kg/injection, schedule: Q04DX003 (ip), vehicle: Klucel (hydroxypropylcellulose) (HPC)
[7] = dose: 200.0 mg/kg/injection, schedule: Q04DX003 (ip), vehicle: Klucel (hydroxypropylcellulose) (HPC)
[8] = dose: 400.0 mg/kg/injection, schedule: Q04DX003 (ip), vehicle: Klucel (hydroxypropylcellulose) (HPC)
[9] = dose: 12.5 mg/kg/injection, schedule: Q04DX003 (ip), vehicle: saline
[10] = dose: 25.0 mg/kg/injection, schedule: Q04DX003 (ip), vehicle: saline

O=NN(CCCl)C(=O)NC1CCCC1
T/C (dose: 3.0 mg/kg/injection, schedule: Q01DX001 (ip), vehicle: saline): 108 % of control | T/C (dose: 6.0 mg/kg/injection, schedule: Q01DX001 (ip), vehicle: saline): 108 % of control | T/C (dose: 12.0 mg/kg/injection, schedule: Q01DX001 (ip), vehicle: saline): 112 % of control | T/C (dose: 18.0 mg/kg/injection, schedule: Q01DX001 (ip), vehicle: saline): 118 % of control | T/C (dose: 25.0 mg/kg/injection, schedule: Q01DX001 (ip), vehicle: saline): 162 % of control | T/C (dose: 30.0 mg/kg/injection, schedule: Q01DX001 (ip), vehicle: saline): 222 % of control | T/C (dose: 44.0 mg/kg/injection, schedule: Q01DX001 (ip), vehicle: saline): 302 % of control | T/C (dose: 50.0 mg/kg/injection, schedule: Q01DX001 (ip), vehicle: saline): 328 % of control | T/C (dose: 67.0 mg/kg/injection, schedule: Q01DX001 (ip), vehicle: saline): 278 % of control | T/C (dose: 93.0 mg/kg/injection, schedule: Q01DX001 (ip), vehicle: saline): 243 % of control | T/C [1]: 224 % of control and 333 % of control | T/C (dose: 150.0 mg/kg/injection, schedule: Q01DX001 (ip), vehicle: saline): 295 % of control | T/C (dose: 187.0 mg/kg/injection, schedule: Q01DX001 (ip), vehicle: saline): 197 % of control | T/C (dose: 375.0 mg/kg/injection, schedule: Q01DX001 (ip), vehicle: saline): 283 % of control | T/C (dose: 500.0 mg/kg/injection, schedule: Q01DX001 (ip), vehicle: saline): 327 % of control

C=CCN(C)/N=N/c1[nH]ncc1C(N)=O
T/C (dose: 14.5 mg/kg/injection, schedule: Q01DX009 (ip), vehicle: saline with Tween-80): 116 % of control | T/C (dose: 44.0 mg/kg/injection, schedule: Q04DX003 (ip), vehicle: saline with Tween-80): 114 % of control | T/C (dose: 50.0 mg/kg/injection, schedule: Q01DX009 (ip), vehicle: saline with Tween-80): 157 % of control | T/C (dose: 50.0 mg/kg/injection, schedule: Q04DX003 (ip), vehicle: saline with Tween-80): 119 % of control | T/C (dose: 67.0 mg/kg/injection, schedule: Q04DX003 (ip), vehicle: saline with Tween-80): 114 % of control | T/C (dose: 100.0 mg/kg/injection, schedule: Q01DX001 (ip), vehicle: saline with Tween-80): 109 % of control | T/C [2]: 154 % of control | T/C [3]: 88 % of control

Cc1ccc(Nc2n[nH]c(=S)s2)c(C)c1
T/C (dose: 100.0 mg/kg/injection, schedule: Q04DX002 (ip), vehicle: gum acacia): 96 % of control | T/C (dose: 200.0 mg/kg/injection, schedule: Q04DX002 (ip), vehicle: gum acacia): 96 % of control | T/C (dose: 400.0 mg/kg/injection, schedule: Q04DX002 (ip), vehicle: gum acacia): 111 % of control

COC(=O)c1ccccc1Nc1ccccc1[N+](=O)[O-]
T/C (dose: 75.0 mg/kg/injection, schedule: Q04DX003 (ip), vehicle: Klucel (hydroxypropylcellulose) (HPC)): 101 % of control | T/C (dose: 100.0 mg/kg/injection, schedule: Q01DX001 (ip), vehicle: Klucel (hydroxypropylcellulose) (HPC)): 100 % of control | T/C (dose: 150.0 mg/kg/injection, schedule: Q04DX003 (ip), vehicle: Klucel (hydroxypropylcellulose) (HPC)): 87 % of control | T/C (dose: 200.0 mg/kg/injection, schedule: Q01DX001 (ip), vehicle: Klucel (hydroxypropylcellulose) (HPC)): 95 % of control | T/C (dose: 300.0 mg/kg/injection, schedule: Q04DX003 (ip), vehicle: Klucel (hydroxypropylcellulose) (HPC)): 90 % of control | T/C (dose: 400.0 mg/kg/injection, schedule: Q01DX001 (ip), vehicle: Klucel (hydroxypropylcellulose) (HPC)): 113 % of control

CCOC(=O)C1=NN(c2ccccc2)C(=O)C1N=Nc1ccc(S(=O)(=O)Nc2onc(C)c2C)cc1 (stereo not given)
T/C [1]: 104 % of control | T/C (dose: 200.0 mg/kg/injection, schedule: Q01DX001 (ip), vehicle: saline): 98 % of control | T/C (dose: 400.0 mg/kg/injection, schedule: Q01DX001 (ip), vehicle: saline): 107 % of control

O=[N+]([O-])c1cc(NS(=O)(=O)c2ccccc2)ccc1NS(=O)(=O)c1ccccc1
T/C [4]: 90 % of control | T/C [5]: 90 % of control | T/C [6]: 111 % of control | T/C (dose: 200.0 mg/kg/injection, schedule: Q01DX009 (ip), vehicle: Klucel (hydroxypropylcellulose) (HPC)): 93 % of control | T/C [7]: 97 % of control | T/C [8]: 94 % of control

O=C(O)COc1ccc(Cl)cc1
T/C [6]: 97 % of control | T/C [7]: 100 % of control | T/C [8]: 100 % of control

CC1OC(O[C@H]2C[C@@H](O)[C@]3(CO)[C@H]4[C@H](O)C[C@]5(C)[C@@H](C6=CC(=O)OC6)CC[C@]5(O)[C@@H]4CC[C@]3(O)C2)C(O)C(O)C1O (stereo not given in full)
T/C (dose: 0.31 mg/kg/injection, schedule: Q01DX009 (ip), vehicle: saline): 101 % of control | T/C (dose: 0.63 mg/kg/injection, schedule: Q01DX009 (ip), vehicle: saline): 101 % of control | T/C (dose: 1.25 mg/kg/injection, schedule: Q01DX009 (ip), vehicle: saline): 98 % of control | T/C (dose: 2.5 mg/kg/injection, schedule: Q01DX009 (ip), vehicle: saline): 102 % of control and 108 % of control | T/C [9]: 92 % of control | T/C [10]: 103 % of control

O=C(CC(NC(=O)OCc1ccccc1)C(=O)O)OCc1ccccc1 (stereo not given)
T/C (dose: 100.0 mg/kg/injection, schedule: Q01DX009 (ip), vehicle: saline sonified): 95 % of control | T/C [2]: 103 % of control | T/C (dose: 100.0 mg/kg/injection, schedule: Q04DX003 (ip), vehicle: saline sonified): 97 % of control | T/C (dose: 200.0 mg/kg/injection, schedule: Q01DX009 (ip), vehicle: saline sonified): 94 % of control | T/C [3]: 94 % of control | T/C (dose: 200.0 mg/kg/injection, schedule: Q04DX003 (ip), vehicle: saline sonified): 89 % of control | T/C (dose: 400.0 mg/kg/injection, schedule: Q01DX009 (ip), vehicle: saline sonified): 90 % of control | T/C (dose: 400.0 mg/kg/injection, schedule: Q01DX009 (ip), vehicle: saline with Tween-80): 94 % of control | T/C (dose: 400.0 mg/kg/injection, schedule: Q04DX003 (ip), vehicle: saline sonified): 103 % of control

CC1(C)OC2OC(COS(C)(=O)=O)C(O)C2O1 (stereo not given)
T/C (dose: 12.5 mg/kg/injection, schedule: Q01DX009 (ip), vehicle: Klucel (hydroxypropylcellulose) (HPC)): 100 % of control | T/C (dose: 25.0 mg/kg/injection, schedule: Q01DX009 (ip), vehicle: Klucel (hydroxypropylcellulose) (HPC)): 105 % of control | T/C [4]: 105 % of control | T/C (dose: 50.0 mg/kg/injection, schedule: Q04DX003 (ip), vehicle: Klucel (hydroxypropylcellulose) (HPC)): 92 % of control | T/C [5]: 103 % of control | T/C [6]: 100 % of control | T/C [7]: 91 % of control | T/C [8]: 102 % of control

NC(N)=N/N=C/c1ccccn1
T/C (dose: 15.0 mg/kg/injection, schedule: Q01DX Z (ip), vehicle: saline): 94 % of control | T/C (dose: 30.0 mg/kg/injection, schedule: Q01DX Z (ip), vehicle: saline): 102 % of control | T/C (dose: 60.0 mg/kg/injection, schedule: Q01DX Z (ip), vehicle: saline): 95 % of control and 101 % of control | T/C (dose: 60.0 mg/kg/injection, schedule: Q01DX Z (oral), vehicle: saline): 103 % of control | T/C (dose: 120.0 mg/kg/injection, schedule: Q01DX Z (ip), vehicle: saline): 96 % of control and 98 % of control | T/C (dose: 120.0 mg/kg/injection, schedule: Q01DX Z (oral), vehicle: saline): 108 % of control | T/C (dose: 240.0 mg/kg/injection, schedule: Q01DX Z (oral), vehicle: saline): 103 % of control | T/C (dose: 480.0 mg/kg/injection, schedule: Q01DX Z (oral), vehicle: saline): 107 % of control

Nc1cc(N)cc([N+](=O)[O-])c1
T/C (dose: 3.12 mg/kg/injection, schedule: Q01DX009 (ip), vehicle: saline): 103 % of control | T/C (dose: 6.25 mg/kg/injection, schedule: Q01DX009 (ip), vehicle: saline): 103 % of control | T/C (dose: 6.25 mg/kg/injection, schedule: Q04DX003 (ip), vehicle: saline): 101 % of control | T/C (dose: 12.5 mg/kg/injection, schedule: Q01DX009 (ip), vehicle: saline): 95 % of control | T/C [9]: 101 % of control | T/C [10]: 101 % of control | T/C (dose: 50.0 mg/kg/injection, schedule: Q01DX001 (ip), vehicle: carboxymethylcellulose (CMC)): 113 % of control | T/C (dose: 100.0 mg/kg/injection, schedule: Q01DX001 (ip), vehicle: carboxymethylcellulose (CMC)): 109 % of control | T/C (dose: 200.0 mg/kg/injection, schedule: Q01DX001 (ip), vehicle: carboxymethylcellulose (CMC)): 107 % of control | T/C (dose: 400.0 mg/kg/injection, schedule: Q01DX001 (ip), vehicle: carboxymethylcellulose (CMC)): 109 % of control
